Results as given in PMC10661773, “Cytotoxic pathways activated by multifunctional thiosemicarbazones targeting sigma-2 receptors in breast and lung carcinoma cells” (Pharmacological Reports, 2023).

Key:
[1] = target: T1, P-gp (Homo sapiens, UniProt P08183); assay: P-gp activity, Calcein-AM assay in MDCK-MDR1 cells; format: cell-based; settings: read-out: P-gp Activity EC50 ± SEM
T1 construct: expressed in transfected cells; host or cells: MDCK-MDR1
Method: According to a previously reported procedure, MDCK-MDR1 cell lines (50,000 cells per well) were seeded into black CulturePlate 96/wells plate with […] medium and grown overnight to confluence. Aliquots (100 µL) of tested compounds in culture medium, at scalar concentrations ranging from 0,1 to 100 µM, were added to each well. The plate was incubated at 37 °C for 30 min, Calcein-AM in phosphate buffered saline (PBS, […]) was added to each well at a final concentration of […], and the plate was incubated for 30 min. The plate was washed 3 times with […] ice cold PBS, Saline buffer ([…]) was added to each well and the plate was read by a PerkinElmer Victor3 spectrofluorimeter at excitation and emission wavelengths of 485 nm and 535 nm, respectively. Under these conditions, calcein cell accumulation in the absence and in the presence of tested compounds was evaluated, and a fluorescence basal level was estimated by untreated cells. In treated wells, the increase of fluorescence with respect to the basal level was measured, EC50 values were determined by fitting the fluorescence increase percentage versus log[dose] with GraphPad Prism Software 5,0 (GraphPad Software, Inc,: San Diego, CA).

[2] = system: caspase 3 in A549 cells; assay: Caspase 3 activity, fluorimetric; format: cell-based, human; settings: A549, 2 h, 50 µM
Method: (§1) Activation of caspase 3, caspase 7 and caspase 9 was measured using the Caspase 3/7 Fluorescence Assay kit (Cayman Chemical, Ann Arbor, MI; #10,009,135) and the Caspase 9 fluorimetric assay kit (Enzo Life Science, Roma, Italy; #ALX-850-224). The results were expressed as nmoles of the hydrolyzed substrate of each caspase/mg cellular proteins, according to a previously set titration curve.

[3] = system: caspase 3 in MCF7 cells; assay: Caspase 3 activity, fluorimetric; format: cell-based, human; settings: MCF7, 2 h, 50 µM
Method: as §1

[4] = system: caspase 7 in A549 cells; assay: Caspase 7 activity, fluorimetric; format: cell-based, human; settings: A549, 2 h, 50 µM
Method: as §1

[5] = system: caspase 7 in MCF7 cells; assay: Caspase 7 activity, fluorimetric; format: cell-based, human; settings: MCF7, 2 h, 50 µM
Method: as §1

[6] = system: GRP78, ATF6, IRE1, PERK in A549 cells; assay: ER stress markers, qRT-PCR and immunoblotting; format: cell-based, human; settings: A549, 2 h, 50 µM
Method: (§2) 1 μg total RNA was reverse-transcribed using the iScript Reverse Transcription Supermix kit (Bio-Rad Laboratories, Hercules, CA; #1,708,840), according to the manufacturer’s instruction. 25 ng cDNA were amplified with 10 μL IQ™ SYBR Green Supermix (Bio-Rad Laboratories, # 1708880B05). Primers were designed with the qPrimer Depot software (http://primerdepot.nci.nih.gov/). qRT-PCR was carried out with a CFX96™ Real-Time Detector System (Bio-Rad Laboratories). Cycling conditions were: 30 s at 95 °C, followed by 40 cycles of denaturation (15 s at 95 °C), annealing/extension (30 s at 60 °C). The same cDNA preparation was used to quantify the genes of interest and the housekeeping gene S14, used to normalize gene expression. The relative quantitation of each sample was carried out using the Gene Expression Quantitation software (Bio-Rad Laboratories). Results were expressed in arbitrary units. For each gene, the expression in untreated cells was assumed to be “1”.
(§3) Cells were rinsed with ice-cold lysis buffer (50 mM, Tris, 10 mM EDTA, 1% v/v Triton-X100), supplemented with the protease inhibitor cocktail set III (80 μM aprotinin, 5 mM bestatin, 1.5 mM leupeptin, 1 mM pepstatin; Sigma, # 535,140), 2 mM phenylmethylsulfonyl fluoride (Sigma: #P7626) and 1 mM Na3VO4, (Sigma; #S6508) then sonicated and centrifuged at 13,000 × g for 10 min at 4 °C. 20 μg protein extracts were subjected to SDS–PAGE and probed with the antibodies for: GRP78 (#ab21685), ATF6 (#ab122897), IRE-1 (#ab37073), PERK (#ab65142), actin (#ab1801) (all from Abcam, Cambridge, UK), followed by a peroxidase-conjugated secondary antibody (Bio-Rad Laboratories). The membranes were washed with Tris-buffered saline-Tween 0.1% v/v solution, and the proteins were detected by enhanced chemiluminescence (Bio-Rad Laboratories, #1,705,061). The densitometric analysis was performed using the ImageJ software (https://imagej.nih.gov/), calculating the ratio protein of interest/actin band density, putting actin band density as 1 relative unit in each condition. Densitometric analysis and whole blots are included as Supporting Information.

[7] = system: GRP78, ATF6, IRE1, PERK in MCF7 cells; assay: ER stress markers, qRT-PCR and immunoblotting; format: cell-based, human; settings: MCF7, 2 h, 50 µM
Method: as §2, §3

[8] = system: A549 cells; assay: Mitochondrial ROS, MitoSOX staining; format: cell-based, human; settings: A549, 2 h, 50 µM
Method: (§4) Intramitochondrial reactive oxygen species (ROS) were measured using the MitoSOX fluorescent probe (Invitrogen ThermoScientific, # M36008), according to the manufacturer’s instructions. For total ROS, cells were incubated with 5 µmol/L of 5-(and-6)-chlorometyl-20,70-dichlorodihydro-fluorescein diacetate-acetoxymethyl ester (DCFDA-AM, Sigma, #21,884), as described by Riganti et al. 2015 [21]. The results are expressed as nmoles/mg mitochondrial or cellular proteins, respectively.

[9] = system: MCF7 cells; assay: Mitochondrial ROS, MitoSOX staining; format: cell-based, human; settings: MCF7, 2 h, 50 µM
Method: as §4

[10] = system: A549 cells; assay: Mitochondrial depolarization, JC-1 staining; format: cell-based, human; settings: A549, 2 h, 50 µM
Method: (§5) Staining with the JC-1 fluorescent probe (Biotium Inc., Freemont, CA; #30,001-30001-T) was performed as described in Riganti et al. 2015 [21]. Fluorescence units were used to calculate the percentage of green-fluorescent (i.e., depolarized) mitochondria vs red-fluorescent (i.e., polarized) mitochondria.

[11] = system: MCF7 cells; assay: Mitochondrial depolarization, JC-1 staining; format: cell-based, human; settings: MCF7, 2 h, 50 µM
Method: as §5

T1 sequence (P08183 whole entry): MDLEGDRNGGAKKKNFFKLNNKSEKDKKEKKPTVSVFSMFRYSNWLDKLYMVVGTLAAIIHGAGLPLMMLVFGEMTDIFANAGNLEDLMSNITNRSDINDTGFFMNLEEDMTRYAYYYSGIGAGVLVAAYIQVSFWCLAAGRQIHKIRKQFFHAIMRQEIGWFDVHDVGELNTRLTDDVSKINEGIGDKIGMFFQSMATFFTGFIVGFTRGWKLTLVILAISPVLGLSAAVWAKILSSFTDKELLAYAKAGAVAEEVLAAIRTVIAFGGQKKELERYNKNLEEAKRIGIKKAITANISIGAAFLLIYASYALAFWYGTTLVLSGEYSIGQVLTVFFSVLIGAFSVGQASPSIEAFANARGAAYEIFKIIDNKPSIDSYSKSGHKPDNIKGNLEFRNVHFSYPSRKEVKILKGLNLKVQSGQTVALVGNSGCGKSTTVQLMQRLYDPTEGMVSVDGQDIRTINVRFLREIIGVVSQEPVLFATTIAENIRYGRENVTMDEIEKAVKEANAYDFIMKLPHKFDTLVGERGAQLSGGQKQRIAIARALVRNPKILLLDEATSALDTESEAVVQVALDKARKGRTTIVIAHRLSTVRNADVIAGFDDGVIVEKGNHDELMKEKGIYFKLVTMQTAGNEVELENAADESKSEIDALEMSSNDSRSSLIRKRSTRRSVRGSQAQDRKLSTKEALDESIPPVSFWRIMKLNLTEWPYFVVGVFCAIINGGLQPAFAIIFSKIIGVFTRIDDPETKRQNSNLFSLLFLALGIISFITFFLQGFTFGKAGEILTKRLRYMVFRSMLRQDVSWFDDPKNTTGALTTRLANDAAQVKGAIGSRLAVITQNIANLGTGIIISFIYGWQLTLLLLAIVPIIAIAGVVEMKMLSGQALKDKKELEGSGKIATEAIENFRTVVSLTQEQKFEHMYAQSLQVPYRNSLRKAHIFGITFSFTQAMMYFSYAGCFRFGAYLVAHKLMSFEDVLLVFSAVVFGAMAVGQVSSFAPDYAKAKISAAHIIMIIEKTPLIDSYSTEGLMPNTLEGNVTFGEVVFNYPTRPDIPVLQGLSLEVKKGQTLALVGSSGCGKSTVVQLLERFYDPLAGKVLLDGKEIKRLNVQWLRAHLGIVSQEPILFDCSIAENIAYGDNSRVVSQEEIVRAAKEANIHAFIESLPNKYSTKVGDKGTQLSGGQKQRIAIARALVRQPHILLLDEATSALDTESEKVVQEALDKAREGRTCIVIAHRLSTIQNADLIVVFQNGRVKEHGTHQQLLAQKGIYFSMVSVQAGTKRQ

For CN(C)C(=S)N/N=C1\C(=O)N(CCCCN2CCC3(CC2)OCc2ccccc23)c2ccccc21 [FA4, (Z)-2-(1-(4-(3H-spiro[isobenzofuran-1,4′-piperidine]-1′-yl)butyl)-2-oxoindolin-3-ylidene)-N,N-dimethylhydrazinecarbothioamide], the EC50 [1] was 3.8 µM, the “Caspase 3 activation” value [2] was “most potent inducer of caspase 3 in both cell lines” and the “Caspase 3 activation” value [3] was “most potent inducer of caspase 3 in both cell lines”. The “Caspase 7 activation” value [4] was “activate”, the “Caspase 7 activation” value [5] was “activate” and the “Expression of ER stress markers GRP78, ATF6, IRE1, PERK” value [6] was “increased”. The “Expression of ER stress markers GRP78, ATF6, IRE1, PERK” value [7] was “increased”, the “Mitochondrial ROS (MitoSOX)” value [8] was “increased” and the “Mitochondrial ROS (MitoSOX)” value [9] was “increased”. The “Mitochondrial depolarization (JC-1 staining)” value [10] was “totally insensitive” and the “Mitochondrial depolarization (JC-1 staining)” value [11] was “strong depolarization”.
